Here are results for one molecule from US20150253330A1, “PRE-SELECTION OF SUBJECTS FOR THERAPEUTIC TREATMENT WITH AN HSP90 INHIBITOR BASED ON HYPOXIC STATUS” (Synta Pharmaceuticals Corp., priority 2012, published 2015).

In data set [1] the test system is Mia-PaCa2, HPAC and PANC-1 cells. The experiment in a line: Proliferation of pancreatic cancer cell lines, 24 hours (confirmed by XTT assay). Type of data set: cell-based. The note with it: p<0.001, one way ANOVA. The protocol: Mia-PaCa2, PANC-1, HPAC and ASPC-1 cell lines (ATCC, Manassas, Va.) were cultured according to the ATCC manual. Medium was supplemented with 10% fetal bovine serum (Invitrogen Corporation, Carlsbad, Calif.), 50 units/ml penicillin, and 50 μg/ml streptomycin (Life Technologies, Inc., Frederick, Md.). Cells were incubated at 37° C. in a humidified 5% CO2 atmosphere.
Background: Formazan colour is commonly taken as a measure of viable cells.

Another data set concerns MKN-45. Nature of the data set: 72 hr viability by Syto60, gastric cell line. The note with it: Homo sapiens, Syto60 (lower), read-out: ganetespib IC50. Type of data set: cell-based. The protocol:
(§1) Many of the oncoproteins associated with gastric cancer and Hsp90 client proteins including HER2, MET, RAS and the FGFR family. Ganetespib was evaluated for its effect on the growth of AGS (wt-p53 and mut-KRAS) and MKN45 (wt-p53, wt-KRAS, MET amplified) gastric cancer cells. Cells were treated for 72 hr and viability determined by CTG (upper) or Syto60 (lower).

The test system of another data set is AGS. The experiment in a line: 72 hr viability by Syto60, gastric cell line. Type of data set: cell-based. Particulars: Homo sapiens, Syto60 (lower), read-out: ganetespib IC50. The procedure: as §1
The next data set relates to solid tumors. The experiment in a line: Phase I dose escalation study, twice-weekly administration in patients with solid tumors. The data set is classed as in vivo, human. The procedure: An open-label Phase 1 dose-escalation study in subjects with solid tumors was performed. The first cohort consisted of three subjects who received 2 mg/m^2 of ganetespib during a 1-hour infusion 2 times per week (e.g., [Monday, Thursday] or [Tuesday, Friday]) for three consecutive weeks followed by a 1 week dose-free interval. The first infusion for the first three subjects was staggered by a minimum of 5 days between subjects. This staggered enrollment scheme was followed for the first cohort only. Subjects tolerating ganetespib continued treatment past week 8 until disease progression as long as the re-treatment criteria continued to be met.
Subsequent cohorts were originally planned to receive escalating doses of 4, 7, 10, 14, 19, 25, 33, 40, and 48 mg/m^2, provided that the previous dose was well-tolerated during cycle 1 (week 1-4). The dose escalation scheme was updated to 25, 50, 75 and 100 mg/m^2, provided that the previous dose was well-tolerated during cycle 1. Following the completion of enrollment at 50 mg/m^2 twice per week, subsequent cohorts were to be treated at 100 mg/m^2 (100% increase above prior dose) and 120 mg/m^2 (20% increase above prior dose), with further dose increments to be approximately 20% over the previous dose level, until the maximum tolerated dose (MTD) was determined. Enrollment was completed at 100 mg/m^2 and the next doses planned were 120 mg/m^2 and 144 mg/m^2.
There had to be at least three evaluable subjects in a cohort before dose escalation could occur. […] Once a subject experienced a DLT the cohort was expanded to six subjects. If only 1 of 6 subjects experienced a DLT, further dose escalation was allowed. However, if 2 of 3 or 2 of 6 subjects experienced a DLT, dose escalation terminated.
A subject's duration of participation included a 2-week screening period and two 4-week treatment cycles totaling approximately 10 weeks. However, at the investigator's discretion, subjects tolerating ganetespib continued treatment past week 8 until disease progression.
The subjects in this study had histologically- or cytologically-confirmed non-hematological malignancy that was metastatic or unresectable. The subjects were documented to be refractory to, or were not candidates for, current standard therapy.
Ganetespib was formulated using 90% v/v PEG 300 and 10% v/v Polysorbate 80 at a concentration of 8 mg/mL and was packaged in a Type I glass amber vial, stoppered with a Flurotec-coated stopper, and sealed. […] The formulation was further diluted with 5% dextrose for injection in infusion container (DEHP-free 500 mL) to a concentration range of 0.02 to 1.2 mg/mL and administered via infusion tubing (DEHP-free) with a 0.22 micron end filter over an hour to the patient. The dosing solution once prepared was administered within 3 hours. Eligible subjects received the drug during a 1-hour infusion 2 times per week for 3 consecutive weeks followed by a 1-week dose-free interval. The amount of ganetespib administered depended upon the cohort to which the subject was assigned and the subject's body surface area (BSA).
A person with triple negative breast cancer (with Stage III invasive ductal carcinoma) from Example 1 enrolled in a Phase I dose escalation study of ganetespib. The patient's disease had progressed on 7 prior chemotherapeutic regimens. The patient was administered 144 mg/m^2 of ganetespib twice-weekly for 3 weeks, followed by 1 week dose-free. […] After 4 cycles, there was a documented 31% reduction in target lesion size (partial response). The treatment was interrupted due to brain metastases treated with whole brain radiation, but treatment with ganetespib resumed in cycle 5.

Data set [2] relates to BT-474 breast cancer cells grown as mammospheres. Nature of the data set: Viability of mammospheres in Matrigel, 72 hr, AlamarBlue. Type of data set: cell-based. The note with it: Homo sapiens, BT-474 mammospheres in Matrigel. The protocol: The cells were treated for 72 hr and analyzed by microscopy. IC50 was determined by AlamarBlue®.
BT-474 HER2+ luminal cells were cultured as mammospheres in Matrigel® and exposed to ganetespib for 72 hr.
For orientation: Alamar Blue is a resazurin reagent that responds to reducing activity.

For data set [3], the system named is KRAS mutant NSCLC cell lines. Nature of the data set: Combinatorial viability analysis in KRAS mutant NSCLC cell lines. The data set is classed as cell-based. The protocol: For combinatorial analysis, cells were seeded in 96-well plates at a predetermined, optimum growth density for 24 h prior to the addition of drug or vehicle to the culture medium. Drug combinations were applied at a non-constant ratio over a range of concentrations for 72 or 96 hours. […] Cell viability was assessed by either AlamarBlue® (Invitrogen, Carlsbad, Calif.) or CellTiter-Glo® assays and normalized to vehicle controls. For each combination study, the level of growth inhibition (fraction affected) is plotted relative to vehicle control. Data are presented as one relevant combination point and the corresponding single agent data for each cell line tested.

Setting [4] is: 41 of 54 enrolled patients assessable for response.
Setting [5] is: one TNBC patient, 144 mg/m^2 twice-weekly for 3 weeks, 1 week dose-free.

Structures are written as SMILES.

Regarding `CC(C)c1cc(-c2nnc(O)n2-c2ccc3c(ccn3C)c2)c(O)cc1O` [ganetespib], the “Proliferation of Mia-PaCa2, HPAC and PANC-1 cells” value in data set [1] was “decreases proliferation”. Also, the IC50 in the data set on MKN-45 was 8 nM; in the data set on AGS, 5 nM; in data set [2], 20 nM. Also, in the data set with solid tumors (setting [4]), the “Confirmed partial responses, patient with melanoma” value stood at 1 patient. Further, the “Confirmed partial responses, patient with triple negative breast cancer” value in the data set on solid tumors (setting [4]) was 1 patient. The “Patients who achieved stable disease” value in the data set with solid tumors (setting [4]) amounted to 15 patients. Also, in the data set with solid tumors (one TNBC patient, 144 mg/m^2 twice-weekly), the Tolerability result is “tolerated the treatment well with mild/moderate toxicities”. Besides, the “Reduction in target lesion size after 4 cycles (partial response)” value with solid tumors (setting [5]) is on record as 31%. The “Response per RECIST after 2 cycles” value in the data set on solid tumors (setting [5]) is listed as “stable disease”. Also, the “Increase in cell death versus monotherapy” value in data set [3] (ganetespib combined with alkylating agents) is no more than 61%; in data set [3] (ganetespib combined with anti-mitotics), “up to 44%”; in data set [3] (ganetespib combined with topoisomerase inhibitors), no more than 26%. Further, the figures for the “Greater activity than monotherapy” value in data set [3] (low dose of ganetespib combined with MEK inhibitors) and in data set [3] (low dose of ganetespib combined with PI3K/mTOR inhibitors) were “up to 77%” and no more than 42%, respectively.

By IC50 is commonly meant the point on the concentration scale where inhibition reaches its midpoint.
